From US11292801B2, “Calpain modulators and therapeutic uses thereof” (Blade Therapeutics, Inc., priority 2016, dated 2022) come the findings set out here.

Where only a bound is given, the exact number is not on record here.

The target of assay [1] is T1, Human Calpain 9/NS1 (Homo sapiens, UniProt O14815).
T1 sequence (O14815 1-690): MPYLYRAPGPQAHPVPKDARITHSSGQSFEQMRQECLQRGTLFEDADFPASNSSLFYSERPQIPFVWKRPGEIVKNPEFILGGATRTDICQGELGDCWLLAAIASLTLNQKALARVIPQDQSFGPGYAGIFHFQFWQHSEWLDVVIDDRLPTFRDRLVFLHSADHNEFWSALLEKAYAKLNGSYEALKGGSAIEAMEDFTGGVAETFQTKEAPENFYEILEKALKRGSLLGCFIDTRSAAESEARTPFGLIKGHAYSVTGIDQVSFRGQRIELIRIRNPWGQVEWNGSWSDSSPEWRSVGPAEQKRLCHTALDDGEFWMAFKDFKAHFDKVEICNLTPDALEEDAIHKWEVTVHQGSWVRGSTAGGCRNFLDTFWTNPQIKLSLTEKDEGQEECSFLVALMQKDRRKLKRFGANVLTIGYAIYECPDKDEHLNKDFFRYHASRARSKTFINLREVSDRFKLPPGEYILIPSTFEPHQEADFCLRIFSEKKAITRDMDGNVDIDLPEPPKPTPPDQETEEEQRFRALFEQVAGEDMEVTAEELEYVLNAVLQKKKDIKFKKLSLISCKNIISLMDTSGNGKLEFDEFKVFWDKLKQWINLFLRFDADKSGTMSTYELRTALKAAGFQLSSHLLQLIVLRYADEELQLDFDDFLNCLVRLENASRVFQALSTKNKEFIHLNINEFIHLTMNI
T1 sequence (P04632 1-268 partner): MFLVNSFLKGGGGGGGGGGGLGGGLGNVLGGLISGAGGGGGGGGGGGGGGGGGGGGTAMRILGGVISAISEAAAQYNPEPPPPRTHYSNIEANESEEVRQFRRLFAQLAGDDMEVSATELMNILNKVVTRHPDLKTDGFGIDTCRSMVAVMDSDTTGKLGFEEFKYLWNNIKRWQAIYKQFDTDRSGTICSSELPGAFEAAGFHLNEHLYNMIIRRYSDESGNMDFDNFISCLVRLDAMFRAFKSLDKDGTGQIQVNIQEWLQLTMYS
Nature of the assay: Biochemical inhibition of calpain 9, continuous fluorescence (FRET substrate) assay. The following applies: mean, read-out: Human Calpain 9/NS1 IC50 (nM)_MEAN. The method in brief:
(§1)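 IC50 values come from 4-parameter fits of progress-curve rates (1-5 min slopes) against log inhibitor concentration. Calpain and inhibitor premixed at ambient 25C in Tris pH ~7.5/NaCl/DTT buffer, then CaCl2 and FRET substrate added to activate; 5-FAM fluorescence (ex 490/em 520) followed 10 min.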

In assay [2] the target is T2, Human Calpain 1/NS1 (Homo sapiens, UniProt P07384).
T2 sequence (P07384 1-714): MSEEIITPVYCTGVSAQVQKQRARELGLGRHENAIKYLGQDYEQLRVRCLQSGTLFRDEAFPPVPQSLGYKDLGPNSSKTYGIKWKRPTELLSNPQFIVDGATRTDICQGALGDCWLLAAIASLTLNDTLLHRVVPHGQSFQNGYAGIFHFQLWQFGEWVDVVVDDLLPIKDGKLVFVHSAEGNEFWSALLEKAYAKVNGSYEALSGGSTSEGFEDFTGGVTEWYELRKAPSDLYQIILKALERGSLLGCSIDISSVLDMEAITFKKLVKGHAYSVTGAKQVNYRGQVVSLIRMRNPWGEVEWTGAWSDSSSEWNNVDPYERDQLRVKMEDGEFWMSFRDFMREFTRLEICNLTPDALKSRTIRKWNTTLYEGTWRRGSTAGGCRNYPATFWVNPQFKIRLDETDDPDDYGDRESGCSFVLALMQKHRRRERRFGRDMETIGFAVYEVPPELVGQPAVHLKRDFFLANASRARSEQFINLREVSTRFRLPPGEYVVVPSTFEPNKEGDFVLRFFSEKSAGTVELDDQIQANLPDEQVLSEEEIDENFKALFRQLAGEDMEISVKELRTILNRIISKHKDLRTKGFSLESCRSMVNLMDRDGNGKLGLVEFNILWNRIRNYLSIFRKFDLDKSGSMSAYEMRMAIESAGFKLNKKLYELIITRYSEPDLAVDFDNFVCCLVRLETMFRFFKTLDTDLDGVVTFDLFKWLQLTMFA
T2 sequence (P04632 1-268 partner): T1 sequence (P04632 1-268 partner)
As to the kind of experiment: Biochemical inhibition of calpain 1, continuous fluorescence (FRET substrate) assay. The following applies: mean, read-out: Human Calpain 1/NS1 IC50 (nM)_MEAN. In a few lines: as §1

In assay [3] the target is T3, Human Calpain 2/NS1 (Homo sapiens, UniProt P17655).
T3 sequence (P17655 1-700): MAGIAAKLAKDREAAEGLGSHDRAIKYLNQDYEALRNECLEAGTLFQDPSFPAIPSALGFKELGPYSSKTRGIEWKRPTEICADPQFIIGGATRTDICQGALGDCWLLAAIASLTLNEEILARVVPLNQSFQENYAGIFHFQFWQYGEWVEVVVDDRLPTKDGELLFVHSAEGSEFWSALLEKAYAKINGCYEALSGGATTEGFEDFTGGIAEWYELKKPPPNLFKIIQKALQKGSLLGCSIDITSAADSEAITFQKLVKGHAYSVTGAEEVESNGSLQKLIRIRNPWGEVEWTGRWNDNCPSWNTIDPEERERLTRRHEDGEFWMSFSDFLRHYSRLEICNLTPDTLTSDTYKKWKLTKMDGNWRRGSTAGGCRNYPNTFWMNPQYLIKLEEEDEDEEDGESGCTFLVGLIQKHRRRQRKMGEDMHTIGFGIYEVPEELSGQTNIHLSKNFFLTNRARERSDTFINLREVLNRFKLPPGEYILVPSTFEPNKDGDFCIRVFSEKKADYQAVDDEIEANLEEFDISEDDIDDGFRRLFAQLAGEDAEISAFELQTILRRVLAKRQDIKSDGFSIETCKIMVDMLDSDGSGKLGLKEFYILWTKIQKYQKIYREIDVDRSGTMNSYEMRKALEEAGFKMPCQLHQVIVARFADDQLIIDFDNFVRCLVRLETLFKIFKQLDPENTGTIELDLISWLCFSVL
T3 sequence (P04632 1-268 partner): T1 sequence (P04632 1-268 partner)
As to the kind of experiment: Biochemical inhibition of calpain 2, continuous fluorescence (FRET substrate) assay. The following applies: mean, read-out: Human Calpain 2/NS1 IC50 (nM)_MEAN. In a few lines:
as §1

In the case of `CCNC(=O)C(=O)[C@@H]1CCCCCCCCc2ccccc2C(=O)N1` [Compound 25, (S)—N-ethyl-2-oxo-2-(1-oxo-2,3,4,5,6,7,8,9,10,11-decahydro-1h-benzo[c][1]aza-cyclotridecin-3-yl)acetamide], the IC50 in assay [1], in assay [2] and in assay [3] was greater than 10000 nM each time.
With `CN(C)c1ccc(CNC(=O)C(=O)C2CCCCOCCOCc3ccccc3C(=O)N2)cc1` (stereo not drawn) [Compound 113, N-(4-(dimethylamino)benzyl)-2-oxo-2-(12-oxo-1,3,4,6,7,8,9,10,11,12-decahydrobenzo[f][1,4]dioxa[9]azacyclotetradecin-10-yl)acetamide], the IC50 in assay [1] is less than 3000 nM; in assay [2], greater than 10000 nM; in assay [3] it was greater than 10000 nM.
In the case of `O=C[C@@H]1Cc2cccc(c2)CCCCOc2cccc(c2)-c2ncccc2C(=O)N1` [Compound 35, (S)-3-Oxo-12-oxa-4-aza-2(2,3)-pyridina-1,7(1,3)-dibenzenacyclododecaphane-5-carbaldehyde], the IC50 in assay [1], in assay [2] and in assay [3] was less than 3000 nM throughout.
In the case of `O=C[C@@H]1Cc2ccccc2CCCOCc2ccccc2C(=O)N1` [Compound 31, (S)-17-Oxo-5,7,8,9,14,15,16,17-octahydrodibenzo[c,i][1]oxa[6]aza-cyclotridecine-15-carbaldehyde], the IC50 in assay [1], in assay [2] and in assay [3] was less than 3000 nM in each case.
`O=C[C@@H]1C/C=C/CCCCCCc2ccccc2C(=O)N1` [Compound 10, (S,E)-1-Oxo-1,2,3,4,7,8,9,10,11,12-decahydrobenzo[c][1]aza-cyclotetradecine-3-carbaldehyde]: the IC50 in assay [1] is less than 3000 nM; in assay [2], 3000 to 10000 nM; in assay [3] it was less than 3000 nM.
With `O=C[C@@H]1CC=CCCOc2cccc(c2)-c2ncccc2C(=O)N1` [Compound 37, (S)-11-Oxo-3-oxa-10-aza-1(2,3)-pyridina-2(1,3)-benzenacycloundecaphan-6-ene-9-carbaldehyde], the IC50 in assay [1], in assay [2] and in assay [3] was less than 3000 nM throughout.
With `CCNC(=O)C(=O)[C@@H]1Cc2ccc(cc2)OC/C=C/COc2cccc(c2)-c2ccn(n2)-c2ncccc2C(=O)N1` [Compound 65, N-ethyl-2-oxo-2-((2^2E,6S,11E)-4-oxo-2^1H-9,14-dioxa-5-aza-3(2,3)-pyridina-2(3,1)-pyrazola-1(1,3),8(1,4)-dibenzenacyclotetradecaphan-11-en-6-yl)acetamide], the IC50 in assay [1], in assay [2] and in assay [3] was less than 3000 nM throughout.
For the molecule `O=C[C@@H]1Cc2cccc(c2)C=CCCOc2cccc(c2)-c2ncccc2C(=O)N1` [Compound 36, (S)-3-Oxo-12-oxa-4-aza-2(2,3)-pyridina-1,7(1,3)-dibenzenacyclododecaphan-8-ene-5-carbaldehyde], the IC50 in assay [1], in assay [2] and in assay [3] was less than 3000 nM each time.
Turning to `O=C[C@@H]1Cc2ccc(cc2)CCCCc2cccc(c2)-c2ccn(n2)-c2ncccc2C(=O)N1` [Compound 73, (10S,E)-12-oxo-2^1H-11-aza-1(2,3)-pyridina-2(1,3)-pyrazola-3(1,3),8(1,4)-dibenzenacyclododecaphane-10-carbaldehyde], the IC50 in assay [1], in assay [2] and in assay [3] was less than 3000 nM each time.
For `O=C(NCc1ccccc1)C(=O)[C@@H]1C/C=C\COCCOCc2ccccc2C(=O)N1` [Compound 3, (S,Z)—N-benzyl-2-oxo-2-(12-oxo-1,3,4,6,9,10,11,12-octahydrobenzo[f][1,4]dioxa[9]azacyclotetradecin-10-yl)acetamide], the IC50 in assay [1] is less than 3000 nM; in assay [2], greater than 10000 nM; in assay [3] it was greater than 10000 nM.
For the molecule `O=C(NCc1ccc(Cl)c(Cl)c1)C(=O)C1CCCCOCCOCc2ccccc2C(=O)N1` (stereo not drawn) [Compound 83, N-(3,4-dichlorobenzyl)-2-oxo-2-(12-oxo-1,3,4,6,7,8,9,10,11,12-decahydrobenzo[f][1,4]dioxa[9]azacyclotetradecin-10-yl)acetamide], the IC50 was less than 3000 nM in assay [1], greater than 10000 nM in assay [2] and 3000 to 10000 nM in assay [3].
In the case of `O=C[C@@H]1C/C=C/CCCCCc2cccnc2C(=O)N1` [Compound 48, (S,E)-15-Oxo-6,7,8,9,12,13,14,15-octahydro-5h-pyrido[2,3-c][1]aza-cyclotridecine-13-carbaldehyde], the IC50 is less than 3000 nM in assay [1], greater than 10000 nM in assay [2] and 3000 to 10000 nM in assay [3].
On the same counts, the results for `O=C(NCCc1ccc(Cl)cc1)C(=O)[C@@H]1C/C=C\COCCOCc2ccccc2C(=O)N1` [Compound 77, (S,Z)—N-(4-chlorophenethyl)-2-oxo-2-(12-oxo-1,3,4,6,9,10,11,12-octahydrobenzo[f][1,4]dioxa[9]azacyclotetradecin-10-yl)acetamide] are less than 3000 nM, 3000 to 10000 nM and 3000 to 10000 nM.
On the same counts, the results for `O=C[C@@H]1Cc2cccc(c2)CCCOCc2ccccc2C(=O)N1` [Compound 32, (S)-2-Oxo-10-oxa-3-aza-1(1,2),6(1,3)-dibenzena-cycloundecaphane-4-carbaldehyde] are less than 3000 nM, less than 3000 nM and less than 3000 nM.
The matching figures for `O=C(NCCCN1CCOCC1)C(=O)C1CCCCOCCOCc2ccccc2C(=O)N1` (stereo not drawn) [Compound 92, N-(3-morpholinopropyl)-2-oxo-2-(12-oxo-1,3,4,6,7,8,9,10,11,12-decahydrobenzo[f][1,4]dioxa[9]azacyclotetradecin-10-yl)acetamide]: 3000 to 10000 nM, greater than 10000 nM and greater than 10000 nM.
As for `O=C[C@@H]1CC=CCOCCn2ccc3cccc(c32)C(=O)N1` [Compound 9], the values for the IC50 in assay [1], in assay [2] and in assay [3] were less than 3000 nM, greater than 10000 nM and less than 3000 nM, respectively.
On to `O=C[C@@H]1CCCCCOc2ccnc(c2)-c2ccccc2C(=O)N1` [Compound 149, (S)-3-oxo-11-oxa-4-aza-1(2,4)-pyridina-2(1,2)-benzenacycloundecaphane-5-carbaldehyde], for which the IC50 in assay [1], in assay [2] and in assay [3] was less than 3000 nM in each case.
